Tested on: gastric ulcer
Assay: Glacial acetic acid-induced gastric ulcer in SD rats
Assay type: in vivo
Details: 1.3 mg/kg, control group 2 continuous administration 15 d, treatment groups 10 d, three times a day
Description: 50 SD rats are used, made to starve for 24 h before testing. The abdominal cavity is opened under ether anesthesia, a glass tube with the inner diameter of 5 mm and the length of 30 mm is vertically placed on the surface of serosa of the gastric body and 0.2 ml of glacial acetic acid is added into the tube cavity. The glacial acetic acid is dipped out with a cotton swab after 5 min, and the surgical incision is sutured. Normal diet is permitted after the surgery, and animals are randomly divided into 5 groups on the next day: a control group 1 (distilled water), a control group 2 (pantoprazole sodium for injection), with continuous administration for 15 d, a treatment group 1 (embodiment 1), a treatment group 2 (embodiment 2) and a treatment group 3 (embodiment 3); and continuous administration is performed for 10 d, three times a day. The stomach is taken out by anatomy, fixed with formaldehyde, cut open along the greater curvature of the stomach and flat spread on a glass plate, and the transverse diameter d1 and the vertical diameter d2 of an ulcer are measured. The area of the ulcer S (mm2) is calculated according to a formula S=π×(d1/2)×(d2/2) to serve as an ulcer index, and ulcer healing rate and ulcer inhibition rate are calculated.

COc1ccnc(C[S+]([O-])c2nc3cc(OC(F)F)ccc3[n-]2)c1OC.[Na+] (stereo not shown) [Control group 2, 5-difluoromethoxy-2-[(3,4-dimethoxy-2-pyridinyl)methyl]sulfinyl-1H-benzimidazole]
Healing rate: 90%
Number of healed animals: 9
Ulcer index (x ± s), ulcer area S=π×(d1/2)×(d2/2): 6.3 ± 6.1 mm2
Ulcer inhibition rate: 65.1%

From patent publication US20160263094A1, “Pantoprazole Sodium Composition Lyophilized Powder for Injection” (priority 2013, published 2016)
